This assay addresses recombinant eIF4E (Homo sapiens (Human), UniProt P06730). Nature of the assay: Fluorescence polarization competition assay for eIF4E binding potency. In short, it runs like this:
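IC50 values reflect 50% displacement of 20 nM EDA-m7GDP-ATTO-550 from 75 nM eIF4E, measured by fluorescence polarization after 30 min at room temperature. Buffer: 20 mM Tris pH 7.5, 100 mM NaCl, 1 mM DTT, 0.02% Tween-20; 1% DMSO.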

The mark [1] stands for this setting: fluorescence polarization competition, 75 nM recombinant eIF4E, 20 nM EDA-m7GDP-ATTO-550, IC50 class, read-out: elF4E FP.
Setting [2] is: inhibition of eIF4E/EDA-m7GDP-ATTO-550 binding by 50%, Table 4B calculated values, read-out: IC50.
Where [3] appears, read: inhibition of eIF4E/EDA-m7GDP-ATTO-550 binding, calculated IC50 values, Table 4B, read-out: IC50.

The text below walks through data of patent publication US11286268B1, “EIF4E-inhibiting compounds and methods” (EFFECTOR THERAPEUTICS, INC., priority 2019, dated 2022).

SMILES strings stand for the structures. Like-named read-outs stand apart in the source and are kept apart here.

Chain of recombinant eIF4E (P06730 whole entry): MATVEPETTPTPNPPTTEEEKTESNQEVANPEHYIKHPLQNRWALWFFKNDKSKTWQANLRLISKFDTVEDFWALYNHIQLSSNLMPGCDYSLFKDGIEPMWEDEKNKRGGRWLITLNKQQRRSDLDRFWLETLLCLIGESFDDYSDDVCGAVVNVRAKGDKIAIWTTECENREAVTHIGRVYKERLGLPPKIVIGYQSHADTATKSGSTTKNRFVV

As for `CCc1ccc(-c2c(C(F)(F)F)cc3nc(C)n(CCOc4ccc(Cl)cc4-c4cc(C)nc5c(C(=O)O)csc45)c(=O)c3c2C#N)cn1` [compound 774], the IC50 is under 50 nM under setting [1] and 8.29 nM under setting [2]. For the compound `CNS(=O)(=O)c1ccc(C#N)c2c(=O)n(CCOc3ccc(Cl)cc3-c3ccnc4c(C(=O)O)csc34)c(C)nc12` [compound 238], the IC50 reads like this: under setting [1], under 50 nM; under setting [2], 38 nM. As to `Cc1nc2cnc(-c3cccc4c3CCN(CC(F)F)C4)c(C#N)c2c(=O)n1CC#Cc1ccc(Cl)cc1-c1ccnc2c(C(=O)O)csc12` [compound 1558], the IC50 under setting [3] is 69 nM. `Cc1cc(-c2cc(Cl)ccc2OCCn2c(C)nc3cnc(N4CC5CCC(C4)N5C)c(C#N)c3c2=O)c2sc(C)c(C(=O)O)c2n1` [compound 868]: the IC50 was under 50 nM under setting [1] and 17.2 nM under setting [2]. For `CC(=O)N1CCN(c2c(C(F)(F)F)cc3nc(C)n(CCOc4ccc(Cl)cc4-c4cccc(C(=O)O)c4)c(=O)c3c2C#N)CC1` [compound 378] the same measures were under 50 nM and 45.1 nM. The like results for `Cc1cc(-c2cc(Cl)ccc2OCCn2c(C)nc3cc(C(F)(F)F)c(N4CCN(C)CC4)cc3c2=O)c2scc(C(=O)O)c2n1` [compound 427] were, in that order, under 50 nM and 25 nM.

Consider `Cc1cc(-c2cc(Cl)ccc2OCCn2c(C)nc3cc(C(F)(F)F)c(N4CCC(F)(F)CC4)nc3c2=O)c2scc(C(=O)O)c2n1` [compound 802], for which the IC50 under setting [1] is under 50 nM and the IC50 under setting [2] was 35.9 nM. Take `Cc1nc2cc(C(F)(F)F)c(N3CCN(C)CC3)c(C#N)c2c(=O)n1CCOc1ccc(Cl)cc1-c1cc(C(=O)O)nc(N(C)C)c1` [compound 1225]: the IC50 runs as follows: under setting [1], under 50 nM; under setting [3], 3.12 nM. Take `Cc1cc2nc(C)n(CCOc3ccc(Cl)cc3-c3cc(C)nc4c(C(=O)O)csc34)c(=O)c2c(C#N)n1` [compound 685]: the IC50 under setting [1] is under 50 nM. As to `Cc1cc(-c2cc(Cl)ccc2OCCn2c(C)nc3cc(Cl)c(N4CCC(O)C4)c(C#N)c3c2=O)c2scc(C(=O)O)c2n1` (centres unmarked) [compound 1054], the IC50 by setting is: under setting [1], under 50 nM; under setting [2], 18.6 nM.

As to `Cc1nc2cnc(N(C)C3CCN(CC(F)(F)Cl)CC3)c(C#N)c2c(=O)n1CCOc1ccc(Cl)cc1-c1ccnc2c(C(=O)O)csc12` [compound 1441], under setting [3], the IC50 is 29.8 nM.

Take `Cc1cc(-c2cc(Cl)ccc2OCCn2c(C)nc3cc(C(F)F)c(-c4cccnc4C)c(C#N)c3c2=O)c2scc(C(=O)O)c2n1` [compound 440]: the IC50 runs as follows: under setting [1], under 50 nM; under setting [2], 4.99 nM. For `Cc1nc2cc(C(F)(F)F)c(N3CCN(C)CC3)c(C#N)c2c(=O)n1CC#Cc1ccc(Cl)cc1-c1cccc(C(=O)O)c1` [compound 1154] the same measures were under 50 nM and 14 nM. For `Cc1cc(-c2cc(Cl)ccc2OCCn2c(C)nc3cncc(C#N)c3c2=O)c2scc(C(=O)NS(C)(=O)=O)c2n1` [compound 600], the IC50 under setting [1] is under 50 nM and the IC50 under setting [2] was 14.2 nM. For `Cc1nc2cnc(N(C)C3CCN(CC(F)F)CC3)c(C#N)c2c(=O)n1CC#Cc1ccc(Cl)cc1-c1ccnc2c(C(=O)O)csc12` [compound 1112] the same measures were under 50 nM and 19.9 nM.

Turning to `Cc1nc2c(N(C)C3CCN(C)C(C(F)F)C3)ncc(C#N)c2c(=O)n1CCOc1ccc(Cl)cc1-c1ccnc2c(C(=O)O)csc12` (centres unmarked) [compound 864], the IC50 under setting [1] is under 50 nM and the IC50 under setting [2] is 47.9 nM. The like results for `Cc1nc(-c2ccccc2C(F)(F)F)c(C#N)c2c(=O)n(CCOc3ccc(Cl)cc3-c3ccnc4c(C(=O)O)csc34)c(C)nc12` [compound 1148] were, in that order, under 50 nM and 35.6 nM.

In the case of `Cc1nc2cnc(N(C)C3CCN([C@@H]4C[C@H]4C(F)(F)F)CC3)c(C#N)c2c(=O)n1CC#Cc1ccc(Cl)cc1-c1ccnc2c(C(=O)O)csc12` [compound 1727], under setting [3], the IC50 was 3.84 nM. Regarding `Cc1cc(-c2cc(Cl)ccc2OCCn2c(C)nc3cc(C(F)(F)F)c(-c4cc(F)cnc4C)c(C#N)c3c2=O)c2scc(C(=O)OCCN3CCCC3)c2n1` [compound 1081], the IC50 under setting [1] is over 1000 nM and the IC50 under setting [2] is 1040 nM. For `N#Cc1cc2c(=O)n(CCOc3ccc(Cl)cc3-c3ccnc4c(C(=O)O)csc34)cnc2cn1` [compound 30] the same measures were 50 to 1000 nM and 164 nM. For the compound `Cc1nc2cc(C(F)(F)F)cc(C#N)c2c(=O)n1CCOc1ccc(Cl)cc1-c1csc2c(C(=O)O)ccnc12` [compound 299], the IC50 reads like this: under setting [1], under 50 nM; under setting [2], 22.3 nM. As to `N#Cc1cc2c(=O)n(CCOc3ccc(Cl)cc3-c3csc(C(=O)O)c3)cnc2cn1` [compound 80], the IC50 was 50 to 1000 nM under setting [1] and 110 nM under setting [2]. The like results for `Cc1ccc2nc(C)n(CCOc3ccc(Cl)cc3-c3ccnc4c(C(=O)O)csc34)c(=O)c2c1C#N` [compound 572] were, in that order, under 50 nM and 30.6 nM. For `C#Cc1c(C(=O)O)cccc1-c1cc(Cl)ccc1OCCn1c(C)nc2cncc(C#N)c2c1=O` [compound 155] the same measures were under 50 nM and 45.5 nM.

Take `Cc1cc(-c2cc(Cl)ccc2OCCn2c(C)nc3cnc(C(F)F)c(C#N)c3c2=O)c2scc(C(=O)O)c2n1` [compound 914]: the IC50 is under 50 nM under setting [1] and 20.7 nM under setting [2]. The like results for `Cc1cc(-c2cc(Cl)ccc2OCCn2c(C)nc3cc(C(F)(F)F)c(-c4cc(C)n(C)n4)c(C#N)c3c2=O)c2scc(C(=O)O)c2n1` [compound 1029] were, in that order, under 50 nM and 7.66 nM. For `Cc1nc2cnc(N(C)[C@@H]3CC[C@@H](N(C)CC(F)F)C3)c(C#N)c2c(=O)n1CC#Cc1ccc(Cl)cc1-c1ccnc2c(C(=O)O)csc12` [compound 1581], under setting [3], the IC50 was 14.3 nM. As to `Cc1nc2cc(C(F)(F)F)c(Cl)c(C#N)c2c(=O)n1CC#Cc1ccc(Cl)cc1-c1ccnc2c(C(=O)O)csc12` [compound 554], the IC50 was under 50 nM under setting [1] and 31.8 nM under setting [2]. For `Cc1nc2c(C(F)F)ccc(C#N)c2c(=O)n1CCOc1ccc(Cl)cc1-c1ccnc2c(C(=O)O)csc12` [compound 360] the same measures were under 50 nM and 42.6 nM. For `Cc1cc(-c2cc(Cl)ccc2OCCn2c(C)nc3ccc(OC(F)(F)F)c(C#N)c3c2=O)c2scc(C(=O)O)c2n1` [compound 583] the same measures were under 50 nM and 15.9 nM. In the case of `Cc1cnc(-c2nc3c(=O)n(CCOc4ccc(Cl)cc4-c4cc(C)nc5c(C(=O)O)csc45)c(C)nc3cc2C(F)(F)F)c(Cl)n1` [compound 1024], the IC50 runs as follows: under setting [1], under 50 nM; under setting [2], 24.2 nM. The like results for `Cc1cc(-c2cc(Cl)ccc2OCCn2c(C)nc3cc(C(F)(F)F)c(C4CC4)nc3c2=O)c2scc(C(=O)O)c2n1` [compound 795] were, in that order, under 50 nM and 12.1 nM. Consider `Cc1nc2ccc(CCN(C)C)c(C#N)c2c(=O)n1CCOc1ccc(Cl)cc1-c1ccc(C(F)F)c2c(C(=O)O)csc12` [compound 577], for which the IC50 under setting [1] is under 50 nM and the IC50 under setting [2] is 39.4 nM. As to `Cc1nc2cnc(N3CCN(C4CC(F)(F)C4)CC3)c(C#N)c2c(=O)n1CC#Cc1ccc(Cl)cc1-c1ccnc2c(C(=O)O)csc12` [compound 1163], the IC50 under setting [1] is under 50 nM and the IC50 under setting [2] was 24.8 nM. The like results for `N#Cc1cc2c(=O)n(CCOc3ccc(Cl)cc3-c3ccnc(C(=O)O)c3)cnc2cn1` [compound 29] were, in that order, 50 to 1000 nM and 211 nM. As for `CC(=O)NS(=O)(=O)c1csc2c(-c3cc(Cl)ccc3OCCn3c(C)nc4c(F)cc(C(F)F)c(C#N)c4c3=O)cc(C)nc12` [compound 570], the IC50 is under 50 nM under setting [1] and 5.57 nM under setting [2]. In the case of `Cc1nc2cnc(N3CCN(C4CC4)C4(CC4)C3)c(C#N)c2c(=O)n1CCOc1ccc(Cl)cc1-c1ccnc2c(C(=O)O)csc12` [compound 1646], the IC50 under setting [3] was 26.3 nM. In the case of `Cc1cc(-c2nc3c(=O)n(CCOc4ccc(Cl)cc4-c4ccc(C#N)c5c(C(=O)O)csc45)c(C)nc3cc2C(F)(F)F)ccn1` [788Fa], the IC50 was over 1000 nM under setting [1] and 1940 nM under setting [2]. For `Cc1cc(-c2cc(Cl)ccc2C#CCn2c(C)nc3cc(C(F)(F)F)c(Cl)c(C#N)c3c2=O)c2scc(C(=O)O)c2n1` [compound 561] the same measures were 50 to 1000 nM and 56.2 nM. For `Cc1cc(-c2cc(Cl)ccc2C#CCn2c(C)nc3c(C)nc(N4CCN(C)CC4)c(C#N)c3c2=O)c2scc(C(=O)O)c2n1` [compound 450] the same measures were under 50 nM and 7.84 nM. The like results for `Cc1cc(-c2cc(Cl)ccc2OCCn2c(C)nc3cc(Cl)cc(C#N)c3c2=O)c2scc(C(=O)O)c2n1` [compound 693] were, in that order, under 50 nM and 15 nM. Take `Cc1cc(-c2cc(Cl)ccc2OCCn2c(C)nc3cc(C(F)(F)F)c(CCN(C)C)c(C#N)c3c2=O)c2scc(C(=O)O)c2n1` [compound 610]: the IC50 runs as follows: under setting [1], under 50 nM; under setting [2], 13.9 nM.

Turning to `Cc1nc2cnc(N(C)C3CCN(CC(F)(F)C(F)F)CC3)c(C#N)c2c(=O)n1CC#Cc1ccc(Cl)cc1-c1ccnc2c(C(=O)NS(=O)(=O)c3ccncc3)csc12` [compound 1705], the IC50 under setting [3] is 4.8 nM. Turning to `Cc1nc2cnc(N(C)C3CCN(CC(C)(F)F)CC3)c(C#N)c2c(=O)n1CC#Cc1ccc(Cl)cc1-c1ccnc2c(C(=O)NS(=O)(=O)c3ccncc3)csc12` [compound 1143], the IC50 reads like this: under setting [1], under 50 nM; under setting [2], 24.6 nM.

As for `Cc1nc2cnc(N(C)C3CC4(C3)CN(CC(F)(F)F)C4)c(C#N)c2c(=O)n1CC#Cc1ccc(Cl)cc1-c1ccnc2c(C(=O)O)csc12` [compound 827], the IC50 under setting [1] is under 50 nM and the IC50 under setting [2] is 5.72 nM.
